Experimental data reported in ChEMBL document CHEMBL4270599, “Synthesis of a 3'-C-ethynyl-β-d-ribofuranose purine nucleoside library: Discovery of C7-deazapurine analogs as potent antiproliferative nucleosides” (Eur J Med Chem, 2018).

Experiments:
Format in all cases: functional
[1] = system: NCI-H322M; assay: Growth inhibition of human NCI-H322M cells assessed as cell growth at 10^-4 M incubated for 48 hrs by sulforhodamine B assay relative to control; details: read-out: Activity
[2] = system: UACC-62; assay: Growth inhibition of human UACC62 cells assessed as cell growth at 10^-8 M incubated for 48 hrs by sulforhodamine B assay relative to control; details: UACC-62, 48 h, read-out: Activity
[3] = system: SK-MEL-2; assay: Growth inhibition of human SK-MEL-2 cells assessed as cell growth at 10^-6 M incubated for 48 hrs by sulforhodamine B assay relative to control; details: SK-MEL-2, 48 h, read-out: Activity
[4] = system: 786-0; assay: Growth inhibition of human 786-0 cells assessed as cell growth at 10^-5 M incubated for 48 hrs by sulforhodamine B assay relative to control; details: 786-0, 48 h, read-out: Activity
[5] = system: HL-60(TB); assay: Growth inhibition of human HL-60(TB) cells assessed as cell growth at 10^-4 M incubated for 48 hrs by sulforhodamine B assay relative to control; details: HL-60, 48 h, read-out: Activity
[6] = system: IGROV-1; assay: Growth inhibition of human IGROV1 cells assessed as cell growth at 10^-5 M incubated for 48 hrs by sulforhodamine B assay relative to control; details: IGROV-1, 48 h, read-out: Activity
[7] = system: SK-MEL-2; assay: Growth inhibition of human SK-MEL-2 cells assessed as cell growth at 10^-4 M incubated for 48 hrs by sulforhodamine B assay relative to control; details: SK-MEL-2, 48 h, read-out: Activity
[8] = system: IGROV-1; assay: Growth inhibition of human IGROV1 cells assessed as cell growth at 10^-6 M incubated for 48 hrs by sulforhodamine B assay relative to control; details: IGROV-1, 48 h, read-out: Activity
[9] = system: OVCAR-3; assay: Growth inhibition of human OVCAR3 cells assessed as cell growth at 10^-5 M incubated for 48 hrs by sulforhodamine B assay relative to control; details: OVCAR-3, 48 h, read-out: Activity
[10] = system: EKVX; assay: Growth inhibition of human EKVX cells assessed as cell growth at 10^-4 M incubated for 48 hrs by sulforhodamine B assay relative to control; details: read-out: Activity
[11] = system: NCI-H226; assay: Growth inhibition of human NCI-H226 cells assessed as cell growth at 10^-6 M incubated for 48 hrs by sulforhodamine B assay relative to control; details: NCI-H226, 48 h, read-out: Activity
[12] = system: HOP-62; assay: Growth inhibition of human HOP62 cells assessed as cell growth at 10^-4 M incubated for 48 hrs by sulforhodamine B assay relative to control; details: HOP-62, 48 h, read-out: Activity
[13] = system: TK-10; assay: Growth inhibition of human TK10 cells assessed as cell growth at 10^-7 M incubated for 48 hrs by sulforhodamine B assay relative to control; details: TK-10, 48 h, read-out: Activity
[14] = system: RXF 393; assay: Growth inhibition of human RXF393 cells assessed as cell growth at 10^-4 M incubated for 48 hrs by sulforhodamine B assay relative to control; details: RXF 393, 48 h, read-out: Activity
[15] = system: NCI-H522; assay: Growth inhibition of human NCI-H522 cells assessed as cell growth at 10^-5 M incubated for 48 hrs by sulforhodamine B assay relative to control; details: NCI-H522, 48 h, read-out: Activity
[16] = system: RPMI-8226; assay: Growth inhibition of human RPMI8226 cells assessed as cell growth at 10^-5 M incubated for 48 hrs by sulforhodamine B assay relative to control; details: RPMI-8226, 48 h, read-out: Activity
[17] = system: A498; assay: Growth inhibition of human A498 cells assessed as cell growth at 10^-4 M incubated for 48 hrs by sulforhodamine B assay relative to control; details: A498, 48 h, read-out: Activity
[18] = system: UACC-257; assay: Growth inhibition of human UACC257 cells assessed as cell growth at 10^-4 M incubated for 48 hrs by sulforhodamine B assay relative to control; details: UACC-257, 48 h, read-out: Activity
[19] = system: SK-OV-3; assay: Growth inhibition of human SKOV3 cells assessed as cell growth at 10^-6 M incubated for 48 hrs by sulforhodamine B assay relative to control; details: SK-OV-3, 48 h, read-out: Activity
[20] = system: UACC-62; assay: Growth inhibition of human UACC62 cells assessed as cell growth at 10^-4 M incubated for 48 hrs by sulforhodamine B assay relative to control; details: UACC-62, 48 h, read-out: Activity
[21] = system: LOX IMVI; assay: Growth inhibition of human LOXIMVI cells assessed as cell growth at 10^-6 M incubated for 48 hrs by sulforhodamine B assay relative to control; details: read-out: Activity
[22] = system: SNB-75; assay: Growth inhibition of human SNB75 cells assessed as cell growth at 10^-5 M incubated for 48 hrs by sulforhodamine B assay relative to control; details: SNB-75, 48 h, read-out: Activity
[23] = system: NCI-H226; assay: Cytotoxicity against human NCI-H226 cells after 48 hrs by SRB assay; details: NCI-H226, 48 h
[24] = system: SN12C; assay: Growth inhibition of human SN12C cells assessed as cell growth at 10^-6 M incubated for 48 hrs by sulforhodamine B assay relative to control; details: read-out: Activity
[25] = system: 786-0; assay: Growth inhibition of human 786-0 cells assessed as cell growth at 10^-4 M incubated for 48 hrs by sulforhodamine B assay relative to control; details: 786-0, 48 h, read-out: Activity
[26] = system: SK-MEL-28; assay: Growth inhibition of human SK-MEL-28 cells assessed as cell growth at 10^-4 M incubated for 48 hrs by sulforhodamine B assay relative to control; details: SK-MEL-28, 48 h, read-out: Activity
[27] = system: OVCAR-8; assay: Growth inhibition of human OVCAR8 cells assessed as cell growth at 10^-4 M incubated for 48 hrs by sulforhodamine B assay relative to control; details: OVCAR-8, 48 h, read-out: Activity
[28] = system: NCI-H522; assay: Growth inhibition of human NCI-H522 cells assessed as cell growth at 10^-6 M incubated for 48 hrs by sulforhodamine B assay relative to control; details: NCI-H522, 48 h, read-out: Activity
[29] = system: LOX IMVI; assay: Growth inhibition of human LOXIMVI cells assessed as cell growth at 10^-4 M incubated for 48 hrs by sulforhodamine B assay relative to control; details: read-out: Activity
[30] = system: UO-31; assay: Growth inhibition of human UO31 cells assessed as cell growth at 10^-5 M incubated for 48 hrs by sulforhodamine B assay relative to control; details: UO-31, 48 h, read-out: Activity
[31] = system: M14; assay: Growth inhibition of human M14 cells assessed as cell growth at 10^-4 M incubated for 48 hrs by sulforhodamine B assay relative to control; details: M14, 48 h, read-out: Activity
[32] = system: RPMI-8226; assay: Growth inhibition of human RPMI8226 cells assessed as cell growth at 10^-4 M incubated for 48 hrs by sulforhodamine B assay relative to control; details: RPMI-8226, 48 h, read-out: Activity
[33] = system: SF-539; assay: Growth inhibition of human SF539 cells assessed as cell growth at 10^-4 M incubated for 48 hrs by sulforhodamine B assay relative to control; details: SF-539, 48 h, read-out: Activity
[34] = read-out: pLC50 (the source's name) (converted)
[35] = read-out: LC50 (the source's name)

Row | Compound | growth at 100 µM [1] [%] | growth at 0.01 µM [2] [%] | growth at 1 µM [3] [%] | growth at 10 µM [4] [%] | growth at 100 µM [5] [%] | growth at 10 µM [6] [%] | growth at 100 µM [7] [%] | growth at 1 µM [8] [%] | growth at 10 µM [9] [%] | growth at 100 µM [10] [%] | growth at 1 µM [11] [%] | growth at 100 µM [12] [%] | growth at 0.1 µM [13] [%] | growth at 100 µM [14] [%] | growth at 10 µM [15] [%] | TGI ([23]; read-out: TGI) [µM] | CC50 [23, 34] [µM] | TGI ([23]; read-out: pTGI (converted)) [µM] | growth at 1 µM [24] [%] | GI50 ([23]; read-out: GI50) [µM] | also measured
1 | C#C[C@@]1(O)[C@@H](CO)O[C@@H](n2cc(F)c3c(N)ncnc32)[C@@H]1O | -30 | 94 | 22 | -52 | -32 | -33 | -36 | 6 | 5 | -10 | 32 | -15 | 102 | -49 | -24 | 2.63 | > 100 | 2.63 | 17 |  | growth at 10 µM [16]: -2%; growth at 100 µM [17]: -75%; growth at 100 µM [18]: -30%; growth at 1 µM [19]: 12%; growth at 100 µM [20]: -78%; growth at 1 µM [21]: 4%; growth at 10 µM [22]: -90%; GI50 ([23]; read-out: pGI50 (converted)): 0.525 µM; growth at 100 µM [25]: -36%; growth at 100 µM [26]: 19%; growth at 100 µM [27]: -27%; growth at 1 µM [28]: -2%; growth at 100 µM [29]: -90%; growth at 10 µM [30]: -36%; growth at 100 µM [31]: -47%; growth at 100 µM [32]: -21%; growth at 100 µM [33]: -39%
2 | C#C[C@@]1(O)[C@@H](CO)O[C@@H](n2ccc3c(N)ncnc32)[C@@H]1O | -65 | 97 | 60 | -18 | -38 | -19 | -34 | 63 | 3 | -26 | 92 | -10 | 110 | -92 | -21 | 4.85 | 26.3 | 4.9 | 45 |  | growth at 10 µM [16]: 7%; growth at 100 µM [17]: -47%; growth at 100 µM [18]: -62%; growth at 1 µM [19]: 52%; growth at 100 µM [20]: -65%; growth at 1 µM [21]: 40%; growth at 10 µM [22]: -64%; GI50 ([23]; read-out: pGI50 (converted)): 2.04 µM; growth at 100 µM [25]: -95%; growth at 100 µM [26]: -47%; growth at 100 µM [27]: -65%; growth at 1 µM [28]: 29%; growth at 100 µM [29]: -92%; growth at 10 µM [30]: -55%; growth at 100 µM [31]: -88%; growth at 100 µM [32]: 2%; growth at 100 µM [33]: -82%
3 | C#C[C@@]1(O)[C@@H](CO)O[C@@H](n2cc(Br)c3c(N)ncnc32)[C@@H]1O |  | 93 to 101 |  |  |  |  |  |  |  |  | 27 to 66 |  | 99 to 103 |  |  | 6.37 to 100 | > 100 |  | 7 to 13 | 0.373 to 4.42 | 
4 | C#C[C@@]1(O)[C@@H](CO)O[C@@H](n2cc(I)c3c(N)ncnc32)[C@@H]1O |  | 95 | 11 to 24 |  |  |  |  |  |  |  | 57 to 70 |  | 85 to 96 |  |  | > 100 |  | > 100 | 16 to 25 | 1.35 to 2.18 | CC50 [23, 35]: > 100 µM
5 | C#C[C@@]1(O)[C@@H](CO)O[C@@H](n2cc(Cl)c3c(N)ncnc32)[C@@H]1O |  | 94 to 97 |  |  |  |  |  |  |  |  |  |  | 100 to 101 |  |  | 0.901 to 100 |  |  | 5 to 11 | 0.308 to 0.837 | CC50 [23, 35]: > 100 µM
